Reference: paper PMC8868383, “Pharmacokinetics and Pharmacodynamics of Key Components of a Standardized Centella asiatica Product in Cognitively Impaired Older Adults: A Phase 1, Double-Blind, Randomized Clinical Trial” (Antioxidants, 2022)
“And” between values parts separate entries of the source, which are not always exact repeats. Identical values can stand only once. Like-named read-outs stand apart in the source and are kept apart here.

Legend:
[1] = Analyte levels in screening and baseline plasma and urine (low phytochemical diet check); settings: for Screening Total, urine concentration / Screening Unconjugated, urine concentration: screening visit; for Screening Total, urine concentration / Screening Unconjugated, urine concentration / Plasma concentration at screening visit: uncontrolled diet; for Screening Total, urine concentration: with enzyme hydrolysis; for Screening Total, urine concentration / Screening Unconjugated, urine concentration / Baseline Total, urine concentration / Baseline Unconjugated, urine concentration: mean ± SEM, n = 4; for Screening Unconjugated, urine concentration: sham enzyme; for Plasma concentration at screening visit: before any CAP; for Baseline Total, urine concentration / Baseline Unconjugated, urine concentration: baseline on study visits after 48 h low phytochemical diet, before CAP
Text: (§1) This was a single-center, randomized, double blind, crossover study of two acute dosages (2 g and 4 g) of CAP. The participants were randomized using an arm equivalence design, by the OHSU Research Pharmacy, to receive each dose of CAP in a different order to prevent tolerance effects and ensure some data was available from each dose in the case of a dropout after the first dose. All study personnel were blinded to the participant’s randomization until all data analysis had been completed. All participants consumed both doses of CAP and attended two study visits a minimum of 14 days apart. They were placed on a low phytochemical diet for 48 h prior to and during each study visit in order to minimize interference from dietary TTs and CQAs and ensure that any such compounds identified in the plasma and urine were derived from C. asiatica. To ensure compliance, all participants completed a diet diary over the course of the 48 h. The participants fasted for a minimum of 10 h prior to each study visit, excluding water, to standardize gastrointestinal transit time and minimize delayed absorption due to the presence of food.
(§2) Calibration curves were prepared in baseline urine and treated with sham enzyme.
(§3) Plasma and urine samples collected at the participant’s screening visit were analyzed in parallel with the samples collected from each study visit to determine the efficacy of the low phytochemical diet in reducing analyte levels from dietary sources. The analysis of the prepared plasma and urine samples was performed at the OHSU Bioanalytical Shared Resource/Pharmacokinetics Core Laboratory (Portland, OR). For detection of TT glycosides and aglycones, an analytical method adapted from Nair et al. [56] was used. […] The injection volume was 20 µL. Gradient elution was performed using a mobile phase of solvent A (water containing 10 mM ammonium acetate and 0.02% ammonium hydroxide; pH 8.5) and solvent B (methanol). The flow rate was 0.42 mL/min. […] The injection volume was 5 µL. Gradient elution was performed using a mobile phase of solvent A (water containing 0.05% v/v acetic acid) and solvent B (acetonitrile with 0.05% v/v acetic acid). The flow rate was 0.8 mL/min.

[2] = Plasma pharmacokinetics after single oral administration of CAP; settings: for Cmax / Tmax / AUC(0-t) / half-life: human; for Cmax / Tmax / AUC(0-t) / half-life / Fold difference in Cmax between the 2 g and 4 g doses: plasma; for Time of larger secondary peak of plasma concentration-time curve / Time of preliminary (initial) peak of plasma concentration-time curve: mean profile, both doses (2 g and 4 g)
Text: as §1
(§4) In the morning of each study visit, a baseline blood sample (20 mL) was collected via a peripheral intravenous catheter. […] Blood samples (10 mL) were collected via the peripheral catheter over a 10 h post-administration period at 0.25, 0.5, 0.75, 1, 1.5, 2, 2.5, 3, 4, 6, 8, and 10 h. Blood was transferred to a BD Vacutainer™ heparinized tube (Fisher Scientific) and centrifuged for 10 min at 10,000× g and 4 °C to isolate plasma. Plasma was frozen in 2mL aliquots and kept at −80 °C until analysis. […] All participants were asked to refrain from consuming food until 2 h after consumption of the study intervention at each visit to prevent delayed absorption due to food effects. Breakfast (at 2 h following CAP ingestion), lunch, dinner and snacks, all meeting the low phytochemical criteria, were provided by the OCTRI Bionutrition Unit. Urine samples were collected at baseline and over the 10 h post-administration period at each visit to measure renal excretion. All post-administration urinary output was combined in a 2 L urine collection container stored at 4 °C during the study visit. The total amount of post CAP administration urine was recorded, and a 50 mL aliquot was frozen at −80 °C for analysis. At the second visit, participants consumed the dose they were not randomized to receive at the first visit and underwent all study procedures previously described.
(§5) Sample preparation was performed using a protein precipitation method adapted from Cheng et al. [55] Duplicate plasma samples (50 µL) were combined with an ascorbic acid solution (1%; 10 µL) and incubated for 20 min at 37 °C using A. aerogenes sulfatase (2.5 µL; 0.025–0.05 units) and E. coli glucuronidase (2.5 µL; 12.5–125 units) dissolved in 50% aqueous glycerol to release the analytes from their sulfate and β-D-glucuronic acid esters. Proteins were precipitated by adding a crash solution (200 µL) consisting of 3:1 acetonitrile:methanol containing internal standards (20 µg/mL d3-isoferulic acid, d3-dihydroisoferulic acid, and chrysin or 50 µg/mL ^13C3-ferulic acid and ursolic acid), holding for 30 min at 4 °C and then centrifuged for 5 min at 10,000× g. The supernatant was filtered through a 0.22 µm Ultrafree MC-GV spin filter (Millipore Sigma) at 10,000× g for 5 min at 4 °C and then transferred to vials for analysis. For TT analysis, the concentration of organic solvent (the sample filtrate) to water in each sample was adjusted to a 60:40 ratio to optimize the peak shape, and for CQA analysis, the concentration of organic solvent to 1% aqueous formic acid in each sample was adjusted to a 90:10 ratio to optimize the peak shape.

[3] = set-up: method as in PMID 19167274; settings: dogs given encapsulated aqueous extracts of C. asiatica standardized to asiaticoside; cited from earlier work
[4] = set-up: method as in PMID 2329813, PMID 8020529; settings: past human studies of TTFCA or asiatic acid alone, capsule form; cited from earlier work
[5] = Renal (urinary) excretion over 10 h after CAP administration; settings: for Detection in 10 h post-administration urine / Predominant form (free or conjugated) in post-administration urine: 2 g and 4 g CAP; for Predominant form (free or conjugated) in post-administration urine: 10 h urine
Experimental: (§6) All participants were asked to refrain from consuming food until 2 h after consumption of the study intervention at each visit to prevent delayed absorption due to food effects. […] Urine samples were collected at baseline and over the 10 h post-administration period at each visit to measure renal excretion. All post-administration urinary output was combined in a 2 L urine collection container stored at 4 °C during the study visit. The total amount of post CAP administration urine was recorded, and a 50 mL aliquot was frozen at −80 °C for analysis. At the second visit, participants consumed the dose they were not randomized to receive at the first visit and underwent all study procedures previously described.
as §2
(§7) Plasma and urine samples collected at the participant’s screening visit were analyzed in parallel with the samples collected from each study visit to determine the efficacy of the low phytochemical diet in reducing analyte levels from dietary sources. The analysis of the prepared plasma and urine samples was performed at the OHSU Bioanalytical Shared Resource/Pharmacokinetics Core Laboratory (Portland, OR). […] The injection volume was 5 µL. Gradient elution was performed using a mobile phase of solvent A (water containing 0.05% v/v acetic acid) and solvent B (acetonitrile with 0.05% v/v acetic acid). The flow rate was 0.8 mL/min.

clinical = settings: human, in vivo, po
Text: as §1, §4, §5

[6] = human, in vivo
Text: as §1, §4, §5

[7] = in vivo
Text: as §1, §2, §3

[8] = in vivo; remark: listed apart in the source
Experimental: as §6, §2, §7

[9] = set-up: method as in PMID 33767223; settings: two separate doses (250 mg and 500 mg), formulation with solubilizing agent; cited from earlier work

Row | Structure (SMILES) | Screening Total, urine concentration [1] [ng/mL] | Cmax ([2]; oral) [ng/mL] | Tmax ([2]; oral) [h] | AUC(0-t) ([2]; po, 2 g) [ng·h/mL] | Cmax ([2]; po, 2 g) [ng/mL] | Tmax ([2]; po, 2 g) [h] | half-life ([2]; po, 2 g) [h] | AUC(0-t) ([2]; po, 4 g) [ng·h/mL] | Cmax ([2]; po, 4 g) [ng/mL] | Tmax ([2]; po, 4 g) [h] | half-life ([2]; po, 4 g) [h] | Time of preliminary (initial) peak of plasma concentration-time curve [2] [h] | Predominant form (free or conjugated) in post-administration urine [5] | Screening Unconjugated, urine concentration [1] [ng/mL] | Plasma concentration at screening visit [1] [ng/mL] | Baseline Total, urine concentration [1] [ng/mL] | Fold difference in Cmax between the 2 g and 4 g doses [2] | other results
1 | O=C(O)/C=C/c1ccc(O)c(O)c1 [CA, caffeic acid] | 260 ± 140 | 0.3 to 0.5 | 6 | 1 ± 1 |  |  | 2.6 | 3 ± 0.3 | 1 ± 0.1 | 4 ± 1 | 3.5 ± 1.2 |  |  | 184 ± 144 | 0.8 ± 0.6 |  |  | Cmax (clinical): 0.3 ± 0.2 ng/mL
2 | O=C(O)CCc1ccc(O)c(O)c1 [DHCA, dihydrocaffeic acid] | 117 ± 64 | 1 to 2 | 4 | 3 ± 0.4 | 1 ± 0.4 | 3.25 ± 0.5 | 4.8 ± 1.3 | 6 ± 1 | 2 ± 0.2 | 3.5 ± 0.5 | 1.1 ± 0.4 | 2 | predominantly conjugated form | 46 ± 36 | 0.3 ± 0.2 | 9 ± 3 | two-fold | Baseline Unconjugated, urine concentration [1]: 0.9 ± 2 ng/mL; Time of larger secondary peak of plasma concentration-time curve [2]: 4 h
3 | COc1cc(/C=C/C(=O)O)ccc1O [FA, ferulic acid] |  |  |  |  |  |  |  |  |  |  |  |  |  |  |  |  |  | Cmax, range over the 2 g and 4 g doses as stated in text [6]: 1 to 1.4 ng/mL; Tmax as stated in text [6]: 6 h; Plasma concentration at screening visit [7]: 1.3 ± 0.2 ng/mL; Screening Total, urine concentration [7]: 372 ± 78 ng/mL; Screening Unconjugated, urine concentration [7]: 7 ± 3 ng/mL; Predominant form (free or conjugated) in post-administration urine [8]: predominantly conjugated form
4 | O=C(O)CCc1cccc(O)c1 [HPP, 3-(3-hydroxyphenyl)propionic acid] | 91 ± 48 | 32 to 42 | 6 | 100 ± 46 | 32 ± 18 | 6 ± 1.4 | 2.3 ± 0.3 | 189 ± 77 | 42 ± 18 | 5.5 ± 1.7 | 1.8 ± 0.7 |  | predominantly conjugated form | 23 ± 14 | 49.6 ± 30.4 | 2 ± 2 |  | 
5 | COc1ccc(/C=C/C(=O)O)cc1O [IFA, isoferulic acid] | 472 ± 246 | 0.9 to 2 | 0.75 | 5 ± 2 | 0.9 ± 0.3 | 1.3 ± 0.6 | 8.8 ± 5.7 | 8 ± 0.4 | 2 ± 0.1 | 1 ± 0.4 | 2.9 ± 0.6 |  | predominantly conjugated form | 4 ± 3 | 2.3 ± 1.0 | 5 ± 2 | two-fold | 

The next lines start with results.

Row | Screening Total, urine concentration [1] [ng/mL] | Cmax ([2]; oral) [ng/mL] | Tmax ([2]; oral) [h] | AUC(0-t) ([2]; po, 2 g) [ng·h/mL] | Cmax ([2]; po, 2 g) [ng/mL] | Tmax ([2]; po, 2 g) [h] | half-life ([2]; po, 2 g) [h] | AUC(0-t) ([2]; po, 4 g) [ng·h/mL] | Cmax ([2]; po, 4 g) [ng/mL] | Tmax ([2]; po, 4 g) [h] | half-life ([2]; po, 4 g) [h] | Time of preliminary (initial) peak of plasma concentration-time curve [2] [h] | Predominant form (free or conjugated) in post-administration urine [5] | Screening Unconjugated, urine concentration [1] [ng/mL] | Plasma concentration at screening visit [1] [ng/mL] | Baseline Total, urine concentration [1] [ng/mL] | Fold difference in Cmax between the 2 g and 4 g doses [2] | Structure (SMILES) | other results
6 | 0.5 ± 5 | 133 to 259 | 2 | 364 ± 114 | 124 ± 29 | 2 ± 0.6 | 3.8 ± 1 | 935 ± 178 | 259 ± 24 | 2 ± 0.6 | 2.2 ± 0.5 | 0.5 | predominantly in the conjugated form |  |  |  |  | C[C@H]1[C@H](C)CC[C@]2(C(=O)O)CC[C@]3(C)C(=CC[C@@H]4[C@@]5(C)C[C@@H](O)[C@H](O)[C@@](C)(CO)[C@@H]5CC[C@]43C)[C@H]12 [AA, asiatic acid] | Cmax ([2]; oral, 2 g): 99 ng/mL; Tmax ([2]; oral, 2 g): 3 h; Cmax ([2]; oral, 4 g): 206 ng/mL; Tmax ([2]; oral, 4 g): 2.5 h; Time of larger secondary peak of plasma concentration-time curve [2]: 2.5 h and 2.5 to 3 h; Time of plasma peak post consumption [3]: 2.7 h; Tmax post-ingestion [4]: 4.0 to 4.6 h; Detection in 10 h post-administration urine [5]: very low concentrations
7 | 939 ± 507 | 11 to 20 | 4 | 42 ± 18 | 11 ± 5 | 3.4 ± 1 | 4.5 ± 1.6 | 77 ± 25 | 20 ± 6 | 3.5 ± 0.5 | 2.5 ± 0.3 |  | predominantly conjugated form | 179 ± 74 | 6.6 ± 3.2 | 273 ± 131 | two-fold | COc1cc(CCC(=O)O)ccc1O [DHFA, dihydroferulic acid] | Baseline Unconjugated, urine concentration [1]: 8 ± 6 ng/mL
8 |  | 36 to 68 | 2 | 101 ± 16 | 38 ± 3 | 2 ± 0.5 | 1.7 ± 0.5 | 187 ± 48 | 63 ± 10 | 2 ± 0.5 | 1.7 ± 0.9 | 0.75 |  |  |  |  |  | C[C@H]1[C@H](C)CC[C@]2(C(=O)O)CC[C@]3(C)C(=CC[C@@H]4[C@@]5(C)C[C@@H](O)[C@H](O)[C@@](C)(CO)[C@@H]5[C@H](O)C[C@]43C)[C@H]12 [MA, madecassic acid] | Cmax ([2]; oral, 2 g): 32 ng/mL; Tmax ([2]; oral, 2 g): 0.75 h; Cmax ([2]; oral, 4 g): 47 ng/mL; Tmax ([2]; oral, 4 g): 3 h
9 |  |  |  |  |  |  |  |  |  |  |  |  | predominantly free form |  |  |  |  | C[C@H]1[C@H](C)CC[C@]2(C(=O)O[C@@H]3O[C@H](CO[C@@H]4O[C@H](CO)[C@@H](O[C@@H]5O[C@@H](C)[C@H](O)[C@@H](O)[C@H]5O)[C@H](O)[C@H]4O)[C@@H](O)[C@H](O)[C@H]3O)CC[C@]3(C)C(=CC[C@@H]4[C@@]5(C)C[C@@H](O)[C@H](O)[C@@](C)(CO)[C@@H]5[C@H](O)C[C@]43C)[C@H]12 [MS, madecassoside] | Plasma levels ([2]; all time points, 2 g and 4 g CAP): below the lower limit of quantitation (LLOQ); Plasma concentration after single administration of modified ECa233 [9]: 10 to 13 ng/mL; Detection in 10 h post-administration urine [5]: small amounts; Amount in the 10 h urine ([5]; after 2 g or 4 g CAP): 1 to 8 µg
